The source of these data is patent US11111242B2, “Pyrrolo[2,3-d]pyrimidinyl, pyrrolo[2,3-b]pyrazinyl and pyrrolo[2,3-d]pyridinyl acrylamides” (Pfizer Inc., priority 2013, dated 2021).

This assay concerns IL-15 induced P-STAT5 in human PBMC (total lymphocytes). In words: PBMC IL-15 Induced P-STAT5. The assay is classed as cell-based. The conditions noted are these: IL-15 stimulated, read-out: PBMC IL15-pSTAT5 IC50. Here is the method: PBMC IL-15 Induced P-STAT5
Frozen human PBMC (200-250 million cells/vial) was thawed at 37° C. The cells were transferred to 10 mL warm medium in a 50-mL conical tube, and centrifuged at 1,200 RPM at room temperature for 5 min. The supernatant was aspirated. […] After adding 47 ml D-PBS (37° C.) to PBMC/FBS suspension, centrifuging at 1,200 RPM at room temperature for 5 min, and aspirating the supernatant, the cells were resuspended in 20 mL warm RPMI medium. Ninety μL of cell suspension were pipetted per well in a 96-well, deep-well, V-bottom plate, and the plate was incubated at 37° C. for 30 min. […] After adding 0.8 mL staining buffer per well, the plates were centrifuged at 1,200 RPM (Beckman GS-6R or Sorvall Legend) at room temperature for 5 min, and again the supernatant was aspirated using a 8-channel or 12-channel manifold. The plate was vortexed, and 0.35 mL 90% methanol/10% H2O (−20° C.) was added per well, and the plate incubated on ice for 20 min. After again adding 0.8 mL staining buffer per well, the plates were centrifuged at 1,200 RPM (Beckman GS-6R or Sorvall Legend) at room temperature for 5 min, and again the supernatant was aspirated using a 8-channel or 12-channel manifold, and then 0.8 mL Staining buffer was added per well. After once again adding 0.8 mL staining buffer per well, the plates were centrifuged at 1,200 RPM (Beckman GS-6R or Sorvall Legend) at room temperature for 5 min, and again the supernatant was aspirated using a 8-channel or 12-channel manifold. […] Samples of 250 μL/well were transferred to a 96-well U-bottom plate, and the FACS analysis was performed gating on total lymphocytes. Samples were analyzed using a BD Calibur™ or BD FACSCanto™ flow cytometer equipped with the BD High Throughput Sampler.

Where two headings read alike, the source gives them in different places.

In the case of `C=CC(=O)N1CCC(Oc2cnc3[nH]cc(-c4cncnc4)c3n2)CC1` [Example 215, 1-(4-{[7-(pyrimidin-5-yl)-5H-pyrrolo[2,3-b]pyrazin-2-yl]oxy}piperidin-1-yl)prop-2-en-1-one], the IC50 was 1.26 µM.
Still for that read-out and setting: in the case of `C=CC(=O)N1CCC(Oc2cnc3[nH]cc(-c4cccnc4F)c3n2)CC1` [Example 217, 1-(4-{[7-(2-fluoropyridin-3-yl)-5H-pyrrolo[2,3-b]pyrazin-2-yl]oxy}piperidin-1-yl)prop-2-en-1-one] it was 0.129 µM; in that of `C=CC(=O)N1CCC(Oc2cnc3[nH]cc(-c4cnc(OC)nc4)c3n2)CC1` [Example 219, 1-(4-{[7-(2-methoxypyrimidin-5-yl)-5H-pyrrolo[2,3-b]pyrazin-2-yl]oxy}piperidin-1-yl)prop-2-en-1-one], 0.987 µM.
For `C=CC(=O)N1CCC(Oc2cnc3[nH]cc(-c4ccnc(C)c4)c3n2)CC1` [Example 220, 1-(4-{[7-(2-methylpyridin-4-yl)-5H-pyrrolo[2,3-b]pyrazin-2-yl]oxy}piperidin-1-yl)prop-2-en-1-one], for the setting “Homo sapiens, PBMC”, the IC50 is 0.465 µM.
For the compound `C=CC(=O)N1CCC(Oc2cnc3[nH]cc(-c4ccnc(F)c4)c3n2)CC1` [Example 222, 1-(4-{[7-(2-fluoropyridin-4-yl)-5H-pyrrolo[2,3-b]pyrazin-2-yl]oxy}piperidin-1-yl)prop-2-en-1-one], the IC50 was 0.757 µM.
On to `C=CC(=O)N1CCC(Oc2cnc3[nH]cc(-c4cncc(C#N)c4)c3n2)CC1` [Example 225, 5-{2-[(1-acryloylpiperidin-4-yl)oxy]-5H-pyrrolo[2,3-b]pyrazin-7-yl}pyridine-3-carbonitrile], for which the IC50 was 2.91 µM.
With `C=CC(=O)N1CCC(Oc2cnc3[nH]cc(-c4ccc(F)nc4)c3n2)CC1` [Example 226, 1-(4-{[7-(6-fluoropyridin-3-yl)-5H-pyrrolo[2,3-b]pyrazin-2-yl]oxy}piperidin-1-yl)prop-2-en-1-one], the IC50 came out at 0.699 µM.
The same measure, in the same setting: in the case of `C=CC(=O)N1CCC(Oc2cnc3[nH]cc(-c4cccc(C(=O)NC)c4)c3n2)CC1` [Example 227, 3-{2-[(1-acryloylpiperidin-4-yl)oxy]-5H-pyrrolo[2,3-b]pyrazin-7-yl}-N-methylbenzamide] it was 0.643 µM; in that of `C=CC(=O)N1CCC(Nc2cnc3[nH]cc(C(=O)NCC4(O)CCC4)c3n2)CC1` [Example 231, 2-[(1-acryloylpiperidin-4-yl)amino]-N-[(1-hydroxycyclobutyl)methyl]-5H-pyrrolo[2,3-b]pyrazine-7-carboxamide], 3.62 µM.
Consider `C=CC(=O)N1CCC(Nc2cnc3[nH]cc(C(=O)NCC4(O)CCCC4)c3n2)CC1` [Example 232, 2-[(1-acryloylpiperidin-4-yl)amino]-N-[(1-hydroxycyclopentyl)methyl]-5H-pyrrolo[2,3-b]pyrazine-7-carboxamide], for which the IC50 was 1.64 µM.
Consider `C=CC(=O)N1CCC(Nc2cnc3[nH]cc(C(=O)NC4CCCC4(F)F)c3n2)CC1` (stereo not drawn) [Example 234, 2-[(1-acryloylpiperidin-4-yl)amino]-N-(2,2-difluorocyclopentyl)-5H-pyrrolo[2,3-b]pyrazine-7-carboxamide], for which, for the setting “Homo sapiens, PBMC”, the IC50 was 0.0652 µM.
For the compound `C=CC(=O)N1CCC(Nc2cnc3[nH]cc(C(=O)NCC4(O)CCC(C)C4)c3n2)CC1` (stereo not drawn) [Example 235, 2-[(1-acryloylpiperidin-4-yl)amino]-N-[(1-hydroxy-3-methylcyclopentyl)methyl]-5H-pyrrolo[2,3-b]pyrazine-7-carboxamide], the half-maximal inhibitory concentration (IC50) came to 1.7 µM.
In the case of `C=CC(=O)N1CCC(Nc2cnc3[nH]cc(C(=O)N[C@@H]4CCC[C@H]4F)c3n2)CC1` [Example 237, 2-[(1-acryloylpiperidin-4-yl)amino]-N-[(1R,2R)-2-fluorocyclopentyl]-5H-pyrrolo[2,3-b]pyrazine-7-carboxamide], the IC50 worked out at 0.0801 µM.
For `C=CC(=O)N1CCC(Nc2cnc3[nH]cc(C(=O)NCC4(O)CC[C@@H](C)C4)c3n2)CC1` (stereo partly drawn) [Example 239, 2-[(1-acryloylpiperidin-4-yl)amino]-N-{[(3R)-1-hydroxy-3-methylcyclopentyl]methyl}-5H-pyrrolo[2,3-b]pyrazine-7-carboxamide], the IC50 worked out at 1.9 µM.
For the compound `C=CC(=O)N1CCC(Nc2cnc3[nH]cc(C(=O)NCCCC#N)c3n2)CC1` [Example 242, 2-[(1-acryloylpiperidin-4-yl)amino]-N-(3-cyanopropyl)-5H-pyrrolo[2,3-b]pyrazine-7-carboxamide], the IC50 came out at 1.1 µM.
Same read-out and setting: in the case of `C=CC(=O)N1CCC(Nc2cnc3[nH]cc(C(=O)N[C@H](C(C)C)[C@@H](O)C(F)(F)F)c3n2)CC1` [Example 248, 2-[(1-acryloylpiperidin-4-yl)amino]-N-[(2R,3R)-1,1,1-trifluoro-2-hydroxy-4-methylpentan-3-yl]-5H-pyrrolo[2,3-b]pyrazine-7-carboxamide] it was 0.893 µM; in that of `C=CC(=O)N1CCC(Nc2cnc3[nH]cc(C(=O)NCC4(O)CCCC(F)(F)C4)c3n2)CC1` (stereo not drawn) [Example 249, 2-[(1-acryloylpiperidin-4-yl)amino]-N-[(3,3-difluoro-1-hydroxycyclohexyl)methyl]-5H-pyrrolo[2,3-b]pyrazine-7-carboxamide], 2.11 µM; in that of `C=CC(=O)N1CCC(Nc2cnc3[nH]cc(C(=O)NCC4(O)CCCC[C@H]4F)c3n2)CC1` (stereo partly drawn) [Example 250, 2-[(1-acryloylpiperidin-4-yl)amino]-N-{[(2R)-2-fluoro-1-hydroxycyclohexyl]methyl}-5H-pyrrolo[2,3-b]pyrazine-7-carboxamide], 4.12 µM.
The same measure, in the same setting: for `C=CC(=O)N1CCC(Nc2cnc3[nH]cc(C(=O)NC(CC)C4(O)CCC4)c3n2)CC1` (stereo not drawn) [Example 251b, 2-[(1-acryloylpiperidin-4-yl)amino]-N-[1-(1-hydroxycyclobutyl)propyl]-5H-pyrrolo[2,3-b]pyrazine-7-carboxamide] the value was 1.51 µM.
On the same count and under the same terms, in the case of `C=CC(=O)N1CCC(Nc2cnc3[nH]cc(C(=O)N[C@@H](C(C)C)[C@H](O)C(F)(F)F)c3n2)CC1` [Example 252, 2-[(1-acryloylpiperidin-4-yl)amino]-N-[(2S,3S)-1,1,1-trifluoro-2-hydroxy-4-methylpentan-3-yl]-5H-pyrrolo[2,3-b]pyrazine-7-carboxamide] it was 0.673 µM.
In the case of `C=CC(=O)N1CCC(Nc2cnc3[nH]cc(C(=O)NCC4(O)CCC(F)(F)CC4)c3n2)CC1` [Example 252b, 2-[(1-acryloylpiperidin-4-yl)amino]-N-[(4,4-difluoro-1-hydroxycyclohexyl)methyl]-5H-pyrrolo[2,3-b]pyrazine-7-carboxamide], the IC50 turned out to be 2.47 µM.
Turning to `C=CC(=O)N1CCC(Nc2cnc3[nH]cc(C(=O)NCC4(O)CCCC[C@@H]4F)c3n2)CC1` (stereo partly drawn) [Example 254, 2-[(1-acryloylpiperidin-4-yl)amino]-N-{[(2S)-2-fluoro-1-hydroxycyclohexyl]methyl}-5H-pyrrolo[2,3-b]pyrazine-7-carboxamide], the IC50 is 0.837 µM.
Still for that read-out and setting: for `C=CC(=O)N1CCC(Nc2cnc3[nH]cc(C(=O)NCCCCCCCCC#N)c3n2)CC1` [Example 260, 2-[(1-acryloylpiperidin-4-yl)amino]-N-(8-cyanooctyl)-5H-pyrrolo[2,3-b]pyrazine-7-carboxamide] the value was 0.575 µM; for `C=CC(=O)N1CCC(Nc2cnc3[nH]cc(C(=O)N[C@H]4CCC[C@H](CC#N)C4)c3n2)CC1` [Example 262, 2-[(1-acryloylpiperidin-4-yl)amino]-N-[(1S,3S)-3-(cyanomethyl)cyclohexyl]-5H-pyrrolo[2,3-b]pyrazine-7-carboxamide], 1.33 µM.

As a reminder, the IC50 is the midpoint of a concentration-inhibition curve.
